These results are taken from PMC7317212 (Chemmedchem, 2020).

The structures appear in SMILES notation.

Test [1] addresses T1, mGAT1 (Mus musculus, UniProt P31648).
T1 construct: expressed in transfected cells; host or cells: HEK293
The experiment in a line: MS Binding Assay with NO711 as native MS marker. As to conditions: for remaining activity at 100 µM: in presence of 100 μM compound, read-out: remaining specific NO711 binding (mGAT1); for Ki: MS Binding Assay, NO711 marker, pKi±SEM, read-out: pK i mGAT1 (converted). In outline: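 Competitive MS binding using membranes from HEK293 cells stably expressing mGAT1, with 10 nM unlabeled NO711 as marker and compounds at 7 concentrations. Nonspecific binding defined with 100 mM GABA. Bound NO711 eluted after filtration and quantified by LC-ESI-MS/MS against [2H10]NO711; Ki derived.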

In test [2] the target is T1, mGAT1. The experiment in a line: [^3H]GABA uptake assay, HEK293 cells expressing mGAT1. It counts as cell-based. To be noted: for remaining activity at 100 µM: HEK293, in presence of 100 μM compound; for IC50: [^3H]GABA uptake, pIC50±SEM. In outline: (§1)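 HEK293 cells expressing mouse GATs preincubated 25 min at 37 °C with compound in Krebs buffer pH 7.2, then [3H]GABA added: 8 nM plus 32 nM unlabeled for 4 min (mGAT1/3/4), 20 nM plus 20 nM for 10 min (mGAT2). Filtration, scintillation counting; nonspecific uptake with 10 mM (mGAT1/3/4) or 100 mM GABA (mGAT2); pIC50.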

The target of the next test is T2, mGAT2 (Mus musculus, UniProt P31651).
T2 construct: expressed in transfected cells; host or cells: HEK293
T2 sequence (P31651 1-614): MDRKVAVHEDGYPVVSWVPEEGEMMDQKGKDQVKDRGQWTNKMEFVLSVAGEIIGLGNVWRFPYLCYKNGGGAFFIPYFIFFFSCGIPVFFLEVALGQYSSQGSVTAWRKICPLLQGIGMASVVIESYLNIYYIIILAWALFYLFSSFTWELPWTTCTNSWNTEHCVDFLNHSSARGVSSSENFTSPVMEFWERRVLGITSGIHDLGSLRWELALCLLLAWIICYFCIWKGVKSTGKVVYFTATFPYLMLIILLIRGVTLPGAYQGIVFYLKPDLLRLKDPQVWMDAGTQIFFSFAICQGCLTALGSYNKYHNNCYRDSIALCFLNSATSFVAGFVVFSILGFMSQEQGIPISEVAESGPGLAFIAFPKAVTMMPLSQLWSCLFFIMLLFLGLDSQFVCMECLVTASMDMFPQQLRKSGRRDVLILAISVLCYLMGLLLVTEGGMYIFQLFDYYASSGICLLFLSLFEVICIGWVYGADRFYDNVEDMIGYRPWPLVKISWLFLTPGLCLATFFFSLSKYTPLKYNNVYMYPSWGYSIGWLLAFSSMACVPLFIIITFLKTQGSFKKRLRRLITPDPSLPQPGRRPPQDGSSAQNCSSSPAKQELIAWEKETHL
As to the kind of experiment: [^3H]GABA uptake assay, HEK293 cells expressing mGAT2. It counts as cell-based. As to conditions: for remaining activity at 100 µM: HEK293, in presence of 100 μM compound; for IC50: [^3H]GABA uptake, pIC50±SEM. In outline: as §1

A further test has as its target T3, mGAT3 (Mus musculus, UniProt P31649).
T3 construct: expressed in transfected cells; host or cells: HEK293
T3 sequence (P31649 1-602): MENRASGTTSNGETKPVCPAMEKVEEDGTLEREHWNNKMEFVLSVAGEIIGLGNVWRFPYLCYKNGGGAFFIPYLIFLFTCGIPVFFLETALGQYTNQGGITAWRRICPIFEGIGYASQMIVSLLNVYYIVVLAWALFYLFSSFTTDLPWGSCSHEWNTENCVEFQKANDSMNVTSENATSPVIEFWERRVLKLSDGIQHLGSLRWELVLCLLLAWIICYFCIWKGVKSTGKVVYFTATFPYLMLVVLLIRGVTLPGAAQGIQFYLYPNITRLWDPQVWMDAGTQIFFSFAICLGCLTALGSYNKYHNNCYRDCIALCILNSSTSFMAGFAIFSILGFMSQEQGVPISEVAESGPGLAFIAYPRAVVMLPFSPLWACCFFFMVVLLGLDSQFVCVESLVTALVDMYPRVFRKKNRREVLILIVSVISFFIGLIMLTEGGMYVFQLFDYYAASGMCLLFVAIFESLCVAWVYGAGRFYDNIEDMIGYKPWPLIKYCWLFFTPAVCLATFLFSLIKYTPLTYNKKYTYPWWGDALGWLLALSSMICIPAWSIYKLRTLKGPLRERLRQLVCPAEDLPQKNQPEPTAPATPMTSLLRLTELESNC
The experiment in a line: [^3H]GABA uptake assay, HEK293 cells expressing mGAT3. The test is classed as cell-based. To be noted: for remaining activity at 100 µM: HEK293, in presence of 100 μM compound; for IC50: [^3H]GABA uptake, pIC50±SEM. In outline: as §1

The target of a further test is T4, mGAT4 (Mus musculus, UniProt P31650).
T4 construct: expressed in transfected cells; host or cells: HEK293
T4 sequence (P31650 1-627): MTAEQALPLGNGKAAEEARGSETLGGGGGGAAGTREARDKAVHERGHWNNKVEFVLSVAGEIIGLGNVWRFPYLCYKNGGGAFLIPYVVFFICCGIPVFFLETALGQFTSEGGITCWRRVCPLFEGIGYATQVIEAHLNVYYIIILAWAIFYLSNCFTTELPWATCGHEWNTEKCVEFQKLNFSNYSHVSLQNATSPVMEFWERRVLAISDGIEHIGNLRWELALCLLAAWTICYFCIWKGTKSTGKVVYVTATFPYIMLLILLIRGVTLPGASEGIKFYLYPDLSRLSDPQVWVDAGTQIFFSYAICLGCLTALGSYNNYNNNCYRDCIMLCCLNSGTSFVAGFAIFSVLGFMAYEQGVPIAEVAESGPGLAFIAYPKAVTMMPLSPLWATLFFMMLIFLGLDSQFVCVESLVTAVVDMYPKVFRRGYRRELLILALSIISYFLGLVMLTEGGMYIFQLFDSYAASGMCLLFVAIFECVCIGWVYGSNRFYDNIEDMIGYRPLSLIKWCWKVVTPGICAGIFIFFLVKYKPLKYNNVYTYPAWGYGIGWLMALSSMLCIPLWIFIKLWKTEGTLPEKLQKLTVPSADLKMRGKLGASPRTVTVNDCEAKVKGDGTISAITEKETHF
The experiment in a line: [^3H]GABA uptake assay, HEK293 cells expressing mGAT4. It counts as cell-based. To be noted: for remaining activity at 100 µM: HEK293, in presence of 100 μM compound; for IC50: [^3H]GABA uptake, pIC50±SEM. In outline:
as §1

One may read the IC50 as the point on the concentration scale where inhibition reaches its midpoint. The low end stands for inhibition by little substance, the high end for a need for much substance.

Turning to `CCOC(=O)C1CCCN(CCOC(C(=O)OC)(c2ccc(OC)cc2)c2ccc(OC)cc2)C1` (racemic) [12 k, rac‐ Ethyl 1‐{2‐[2‐methoxy‐1,1‐bis(4‐methoxyphenyl)‐2‐oxoethoxy]ethyl}‐piperidine‐3‐carboxylate], the remaining activity at 100 µM at mGAT1 [1] came to 90.8%; at mGAT1 [2], 89.1%; at mGAT2 it was 92.6%; on mGAT3, 64.1%; on mGAT4 it was 78.2%.

Take `CCOC(=O)c1ccc(C(OCCN2CCCC(C(=O)OCC)C2)(c2ccc(OC)cc2)c2ccc(OC)cc2)cc1` (racemic) [12 e, rac‐ Ethyl 1‐(2‐{[4‐(ethoxycarbonyl)phenyl]bis[4‐methoxyphenyl]‐methoxy}ethyl)piperidine‐3‐carboxylate]: the remaining activity at 100 µM at mGAT1 [1] amounted to 74.8%; at mGAT1 [2], 84.6%; at mGAT2, 87.3%; on mGAT3, 79%; on mGAT4, 76.1%.

On to `COc1ccc(C(OCCN2CCCC(C(=O)O)C2)(c2ccc(OC)cc2)c2ccc3nccn3c2)cc1` (racemic) [5 d, rac‐ 1‐(2‐{Imidazo[1,2‐a]pyridin‐6‐ylbis(4‐methoxyphenyl)methoxy}‐ethyl)piperidine‐3‐carboxylic acid], for which, at mGAT1 [1], the Ki is 93.3 µM. Besides, the remaining activity at 100 µM was determined as 84.9% on mGAT1 [2], 72.9% on mGAT2 and 81.8% at mGAT3. At mGAT4, this compound had a 50% inhibitory concentration (IC50) of 26.3 µM.

Consider `CCOC(=O)C1CCCN(CCOC(c2ccc(COC)cc2)(c2ccc(COC)cc2)c2ccc(OC)cc2)C1` (racemic) [12 h, rac‐ Ethyl 1‐(2‐{bis[4‐(methoxymethyl)phenyl][4‐methoxyphenyl]‐methoxy}ethyl)piperidine‐3‐carboxylate], for which the remaining activity at 100 µM at mGAT1 [1] is 72.9%; at mGAT1 [2] it was 64.9%; on mGAT3, 50.6%. Also, the figures for the IC50 on mGAT2 and against mGAT4 were 50.1 µM and 89.1 µM, respectively.

With `COCc1ccc(C(OCCN2CCCC(C(=O)O)C2)(c2ccc(OC)cc2)c2ccc(OC)cc2)cc1` (racemic) [5 f, rac ‐1‐(2‐{[4‐(Methoxymethyl)phenyl]bis[4‐methoxyphenyl]methoxy}‐ethyl)piperidine‐3‐carboxylic acid], the remaining activity at 100 µM at mGAT1 [1] was determined as 89.4%; on mGAT1 [2], 67.1%; on mGAT2 it was 72.7%. In addition, the IC50 against mGAT3 was 30.9 µM; against mGAT4, 3.8 µM.

Consider `COc1ccc(C(OCCN2CCCC(C(=O)O)C2)(c2ccc(CNCC(=O)O)cc2)c2ccc(OC)cc2)cc1` (racemic) [5 n, rac‐ 1‐{2‐[(4‐{[(Carboxymethyl)amino]methyl}phenyl)bis(4‐methoxy‐phenyl)methoxy]ethyl}piperidine‐3‐carboxylic acid], for which the remaining activity at 100 µM is 86.2% on mGAT1 [1]; 81.8% at mGAT1 [2]; 96.1% on mGAT2; 90.9% at mGAT3; 72.2% on mGAT4.

As to `COc1ccc(C(OCCN2CCC[C@@H](C(=O)O)C2)(c2ccc(C=O)cc2)c2ccc(OC)cc2)cc1` [(R)‐5 a], the Ki on mGAT1 [1] is 12.3 µM. The 50% inhibitory concentration (IC50) was 35.5 µM against mGAT1 [2], 33.9 µM against mGAT3 and 13.8 µM against mGAT4. Besides, at mGAT2, the remaining activity at 100 µM amounted to 50.1%.

`CCOC(=O)C1CCCN(CCOC(c2ccc(OC)cc2)(c2ccc(OC)cc2)c2ccc(C(N)=O)cc2)C1` (racemic) [12 j, rac‐ Ethyl 1‐{2‐[(4‐carbamoylphenyl)bis(4‐methoxyphenyl)methoxy]‐ethyl}piperidine‐3‐carboxylate]: the remaining activity at 100 µM worked out at 89.3% on mGAT1 [1], 57.8% on mGAT1 [2], 56.1% on mGAT2 and 60% at mGAT4. At mGAT3, this compound showed an IC50 of 79.4 µM.

As to `CCOC(=O)C1CCCN(CCOC(c2ccc(OC)cc2)(c2ccc(OC)cc2)c2ccc3nccn3c2)C1` (racemic) [12 d, rac‐ Ethyl 1‐(2‐{imidazo[1,2‐a]pyridin‐6‐ylbis(4‐methoxyphenyl)methoxy}‐ethyl)piperidine‐3‐carboxylate], on mGAT1 [1], the remaining activity at 100 µM amounted to 77.2%. Besides, the concentration for half-maximal inhibition (IC50) was 40.7 µM on mGAT1 [2], 13.2 µM at mGAT2, 19.5 µM against mGAT3 and 57.5 µM against mGAT4.

Take `COc1ccc(C(OCCN2CCCC(C(=O)O)C2)(c2ccc(CO)cc2)c2ccc(OC)cc2)cc1` (racemic) [5 m, rac‐1‐(2‐{[4‐(Hydroxymethyl)phenyl]bis[4‐methoxyphenyl]methoxy}‐ethyl)piperidine‐3‐carboxylic acid]: the remaining activity at 100 µM was determined as 55% at mGAT1 [1], 78.1% on mGAT1 [2], 91.6% at mGAT2 and 58.7% at mGAT3. Also, inhibition on mGAT4 was half-maximal at 12.6 µM (IC50).

Take `CCOC(=O)C1CCCN(CCOC(c2ccc(C=O)cc2)(c2ccc(OC)cc2)c2ccc(OC)cc2)C1` (racemic) [12 a, rac‐ Ethyl 1‐{2‐[(4‐formylphenyl)bis(4‐methoxyphenyl)methoxy]ethyl}‐piperidine‐3‐carboxylate]: the remaining activity at 100 µM was found to be 85.4% on mGAT1 [1], 55.5% on mGAT1 [2] and 55.9% on mGAT4. In addition, the IC50 against mGAT2 was 26.9 µM; against mGAT3 it was 12.6 µM.

Turning to `COc1ccc(C(OCCN2CCCC(C(=O)O)C2)(c2ccc(C#N)cc2)c2ccc(OC)cc2)cc1` (racemic) [5 g, rac ‐1‐{2‐[(4‐Cyanophenyl)bis(4‐methoxyphenyl)methoxy]ethyl}piperidine‐3‐carboxylic acid], on mGAT1 [1], the Ki was 39.8 µM. In addition, the results for the remaining activity at 100 µM at mGAT1 [2] and on mGAT2 were 74.8% and 82.9%, respectively. The IC50 was 49 µM on mGAT3 and 8.51 µM at mGAT4.

As to `COc1ccc(C(OCCN2CCCC(C(=O)O)C2)(c2ccc(CNC(C)(C)C(=O)O)cc2)c2ccc(OC)cc2)cc1` (racemic) [5 q, rac ‐1‐{2‐[(4‐{[(2‐Carboxypropan‐2‐yl)amino]methyl}phenyl)bis(4‐methoxyphenyl)methoxy]ethyl}piperidine‐3‐carboxylic acid], the remaining activity at 100 µM stood at 77% on mGAT1 [1], 80.7% on mGAT1 [2], 77% on mGAT2 and 61.1% at mGAT3. On mGAT4, the 50% inhibitory concentration (IC50) is 45.7 µM.
